In general, IC50 refers to the concentration that gives 50% inhibition. A low value points to inhibition by little substance.

We go through 15 compounds from patent EP0496162A2, “Peptide inhibitors of RAS-GAP interaction” (MERCK & CO. INC., priority 1990, dated 1992).

The target of series [1] is T1, Ras-GAP interaction (Bos taurus, UniProt P09851).
T1 construct: made in house; host or cells: GAP: E. coli JM109 (plasmid pYO); Ha-Ras: E. coli RRllaci^q (plasmid pRas[Gly12 Ala59])
T1 sequence (P09851 1-1044): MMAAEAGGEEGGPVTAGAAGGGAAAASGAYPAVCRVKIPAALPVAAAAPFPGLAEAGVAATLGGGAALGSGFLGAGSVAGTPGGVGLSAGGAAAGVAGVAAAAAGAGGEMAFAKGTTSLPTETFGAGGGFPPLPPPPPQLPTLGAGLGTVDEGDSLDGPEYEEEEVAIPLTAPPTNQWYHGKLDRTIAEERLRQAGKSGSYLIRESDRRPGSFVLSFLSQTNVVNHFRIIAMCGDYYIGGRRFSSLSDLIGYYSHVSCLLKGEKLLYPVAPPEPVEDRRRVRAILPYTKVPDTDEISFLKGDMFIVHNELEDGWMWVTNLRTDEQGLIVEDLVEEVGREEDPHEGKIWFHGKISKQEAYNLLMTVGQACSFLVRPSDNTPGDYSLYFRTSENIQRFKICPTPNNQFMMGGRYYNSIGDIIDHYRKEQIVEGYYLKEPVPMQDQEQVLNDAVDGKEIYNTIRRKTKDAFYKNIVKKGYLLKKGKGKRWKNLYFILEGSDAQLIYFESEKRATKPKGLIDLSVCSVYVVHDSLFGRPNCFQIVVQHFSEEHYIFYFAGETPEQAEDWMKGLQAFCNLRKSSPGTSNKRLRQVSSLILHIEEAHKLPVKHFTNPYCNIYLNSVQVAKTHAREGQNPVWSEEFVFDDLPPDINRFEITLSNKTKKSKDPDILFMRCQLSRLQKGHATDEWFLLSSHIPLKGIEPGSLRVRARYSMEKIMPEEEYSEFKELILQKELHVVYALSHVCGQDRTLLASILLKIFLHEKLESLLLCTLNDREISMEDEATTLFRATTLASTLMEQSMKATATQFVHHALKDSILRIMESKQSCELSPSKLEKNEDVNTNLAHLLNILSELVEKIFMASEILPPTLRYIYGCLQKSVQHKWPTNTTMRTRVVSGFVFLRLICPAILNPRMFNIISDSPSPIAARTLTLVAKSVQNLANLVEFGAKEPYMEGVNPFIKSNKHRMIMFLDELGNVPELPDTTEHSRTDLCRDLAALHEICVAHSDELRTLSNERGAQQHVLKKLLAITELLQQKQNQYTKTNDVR
The experiment in a line: Ras-GAP interaction inhibition assay (GAP-stimulated Ras GTPase, charcoal adsorption). The series is classed as biochemical, bovine. The note with it: concentration of peptide required to reduce GAP stimulated Ras-GTP hydrolysis by 50%; 10 fmol GAP, 240 fmol Ha ras p21-GTP, 4 minutes at 24°C. As for the experimental part:
The activity of the synthetic peptides of the present invention, as inhibitors of the interaction of ras with GAP was determined in an assay which measures GAP dependent, Ras GTPase activity. Bovine GAP was either purified from fresh bovine brains or recombinantly produced in E. coli. It is understood that the methods of the present invention may utilize either the recombinant full length GAP or the bovine brain derived GAP. In addition, GAP from other species, such as human and mouse, may be substituted for bovine GAP since they share about 95% amino acid homology. Truncated recombinant forms of GAP are also suitable for use in the Ras-GAP interaction assay [Marshall, M.S., et al., (1989), EMBO J., 8, pp1105-1110]. However, for the screening of synthetic peptides for their ability to block the Ras-GAP interaction, the recombinant, full length GAP is preferred.
The Ras protein utilized in the Ras-GAP GTPase assay of the present invention is Harvey ras (Ha-ras). It is understood that other forms of Ras protein are suitable for use in the present invention. Other suitable forms of Ras protein include, but are not limited to, Kirsten Ras, yeast S. cerevisiae RAS, and N-Ras. Furthermore, it is readily apparent to those skilled in the art that any form of Ras protein which is capable of interacting with GAP is suitable for use in the Ras-GAP GTPase assay.
Ras GTPase activity was measured by the charcoal adsorption procedure. Each 50 µL reaction contained 10 fmol purified GAP, 240 fmol Ha ras p21-[γ ³²P] GTP and 1 mg/mL BSA in buffer D. Varying amounts of the competing peptides were added as indicated. Prewarmed reactions (24°C) were initiated by the addition of GAP, then incubated for 4 minutes at 24°C. The reactions were terminated by the addition of 5 volumes of ice cold 5% activated charcoal (Sigma: HCl washed) in 50 mM NaH₂PO₄. GTPase activity was quantitated by measuring the free ³²P-orthophosphate in the cleared supernatant after centrifugation of the charcoal mix. GAP-stimulated Ras GTPase activity in the absence of competitors was 40-60 fmol Ras-GTP hydrolyzed; the 100% control value. In the absence of GAP, GTP hydrolysis was not detectable during the incubation period of the assay. Inhibitors of this assay block GAP-stimulated Ras GTPase without impairing intrinsic Ras GTPase, assayed in the absence of GAP following incubation at 24°C for one hour.
(§1) Ras peptides were dissolved in either 100% dimethyl formamide (DMF, American Burdick and Jackson) or 100% dimethyl sulfoxide (DMSO, Fluka UV-spectroscopy grade) at a calculated peptide concentration of 1-4 mM. Following 1 minute in a Sonicor SC-200 bath sonicator at room temperature, the peptide solutions were vortexed, and then centrifuged for 5 minutes at room temperature in an Eppendorf microfuge to remove any undissolved material. 20 µL of the cleared peptide solutions were then added to 80 µL of Buffer D in a dilution series covering a range of peptide concentrations from 0.02 µM up to the maximum solubility limit for each peptide. In each dilution, the solvent concentration was maintained at 20%. These peptides solutions were then centrifuged for 5 minutes at room temperature at 10,000 x g, and the cleared supernatants were divided into 2 parts. One part of each cleared peptide dilution was used in a GAP competition assay: 40 µL was added to a 5 µL solution containing 0.1 mg/mL BSA plus 240 fmol Ha-ras p21-[γ-³²P]GTP. Reactions were initiated upon addition of 5 µL of diluted GAP (10 fmol), and analyzed as described above.

The format of series [2] is physicochemical. As for the experimental part: as §1
The other portion of the cleared peptide solution was measured spectrophotometrically to determine solubility and concentration of the peptides. Extinction coefficients were determined by measuring the absorbance at 277 nm of 2 peptides whose exact concentrations were quantitated by amino acid analysis. The extinction coefficients for peptide Ras 17-37 dissolved in buffer D/20% DMF or peptide Ras 91-103 (SEQ ID NO:14)dissolved in water/20% DMSO, were 2580 cm⁻¹M⁻¹ and 2230 cm⁻¹ M⁻¹, respectively. These values were used to determine the exact concentration for each peptide used at each point in the competition assay. In addition, peptide solubility was confirmed by comparing the light scattering at 600 nm for each peptide solution measured before and after centrifugation. Only concentrations reflecting 100% solubility were used in the dose response curves, and the maximum concentration used for each peptide competitor indicates the limit of solubility for that peptide.

Non-standard residues stand in square brackets, D forms with d. Residues, ends and D or L forms follow the SMILES beside them. No end group written: not given here. Where only a bound is given, the exact number is not on record here.

The compound TIQLIQNHFVDEY [Ras 20-32] gave an IC50 in series [1] of 18 µM. Also, in series [2], the “Maximum Solubility” value amounted to 110 µM.

The compound `CC[C@H](C)[C@H](NC(=O)[C@H](CC(C)C)NC(=O)[C@H](CCC(N)=O)NC(=O)[C@@H](NC(=O)[C@@H](NC(=O)[C@@H](N)CC(C)C)[C@@H](C)O)[C@@H](C)CC)C(=O)N[C@@H](CCC(N)=O)C(=O)N[C@H](CC(N)=O)C(=O)N[C@@H](Cc1c[nH]cn1)C(=O)N[C@@H](Cc1ccccc1)C(=O)N[C@H](C(=O)N[C@@H](CC(=O)O)C(=O)N[C@@H](CCC(=O)O)C(=O)N[C@@H](Cc1ccc(O)cc1)C(=O)O)C(C)C` [Ras 19-32(D-Asn)] (H-LTIQLIQ[dN]HFVDEY-OH) returned an IC50 in series [1] of 0.2 µM. In addition, the “Maximum Solubility” value in series [2] came to 12 µM.

In the case of LTIQLIQNHFVDE [Ras 19-31], it took 48 µM to reach half-maximal inhibition in series [1] (IC50). Further, the “Maximum Solubility” value in series [2] is over 1000 µM.

The compound LTIQLIQNHFVDEYD [Ras 19-33] had an IC50 in series [1] of 1.4 µM. In series [2], the “Maximum Solubility” value stood at 23 µM.

In series [1], `CC[C@H](C)[C@H](NC(=O)[C@H](CC(C)C)NC(=O)[C@H](CCC(N)=O)NC(=O)[C@@H](NC(=O)[C@@H](NC(=O)[C@H](CC(C)C)NC(=O)[C@H](C)NC(=O)[C@@H](N)CO)[C@@H](C)O)[C@@H](C)CC)C(=O)N[C@@H](CCC(N)=O)C(=O)N[C@@H](CC(N)=O)C(=O)N[C@@H](Cc1c[nH]cn1)C(=O)N[C@@H](Cc1ccccc1)C(=O)N[C@H](C(=O)N[C@@H](CC(=O)O)C(=O)N[C@@H](CCC(=O)O)C(=O)N[C@@H](Cc1ccc(O)cc1)C(=O)N[C@@H](CC(=O)O)C(=O)N1CCC[C@H]1C(=O)N[C@H](C(=O)N[C@H](C(=O)N[C@@H](CCC(=O)O)C(=O)N[C@@H](CC(=O)O)C(=O)N[C@@H](CO)C(=O)N[C@@H](Cc1ccc(O)cc1)C(=O)N[C@@H](CCCNC(=N)N)C(=O)N[C@@H](CCCCN)C(=O)N[C@@H](CCC(N)=O)C(=O)N[C@H](C(=O)O)C(C)C)[C@@H](C)CC)[C@@H](C)O)C(C)C` [Ras 17-44] returned an IC50 of 2.4 µM. Besides, the “Maximum Solubility” value in series [2] was determined as 200 µM.

NHFVDEY [Ras 26-32] displayed an IC50 in series [1] of 350 µM. In addition, the “Maximum Solubility” value in series [2] is 800 µM.

As for `CC[C@H](C)[C@H](NC(=O)[C@H](CC(C)C)NC(=O)[C@H](CCC(N)=O)NC(=O)[C@@H](NC(=O)[C@@H](NC(=O)[C@H](CC(C)C)NC(=O)[C@H](C)NC(=O)[C@@H](N)CO)[C@@H](C)O)[C@@H](C)CC)C(=O)N[C@@H](CCC(N)=O)C(=O)N[C@@H](CC(N)=O)C(=O)O` [Ras 17-26], the “IC50*” value in series [1] is on record as “no inhibition”. Also, the “Maximum Solubility” value in series [2] turned out to be 600 µM.

As to EYDPTIEDSYRKQ [Ras 31-43], the “IC50*” value in series [1] was “no inhibition”. The “Maximum Solubility” value in series [2] was determined as 446 µM.

LTIQIQNHFVDE [Ras 19-31(1)] yielded an IC50 in series [1] of 36 µM. In series [2], the “Maximum Solubility” value is over 1000 µM.

As to “MRTRVVSGFVFLRLIGPAILNPR [GAP 888-910(Gly903)]”, the “Maximum Solubility” value in series [2] was 800 µM.

In series [1], EELTIQLIQNHFVDEYD-NH2 [Ras 19-33(3)] yielded an IC50 of 50 µM. Besides, the “Maximum Solubility” value in series [2] is 225 µM.

On to SALTIQLIQNHFV [Ras 17-29], for which the “IC50*” value in series [1] was “no inhibition”. Besides, in series [2], the “Maximum Solubility” value was 20 µM.

In turn, LTIQLIQNHFVDEY [Ras 19-32] returned an IC50 in series [1] of 0.4 µM. Also, in series [2], the “Maximum Solubility” value was determined as 48 µM.

On to IQLIQNHFVDEY [Ras 21-32], for which, in series [1], half-maximal inhibition (IC50) required 70 µM. In series [2], the “Maximum Solubility” value is 120 µM.

Regarding `N[C@@H](CC(=O)O)C(=O)N[C@@H](CCC(=O)O)C(=O)N[C@@H](Cc1ccc(O)cc1)C(=O)O` [Ras 30-32] (H-Asp-Glu-Tyr-OH), the “IC50*” value in series [1] is “no inhibition”. For the same compound, the “Maximum Solubility” value in series [2] was 800 µM.
